Key:
[1] = test system: atopic dermatitis patients; details: cited from earlier work
[2] = target: T1, PDE4B (human recombinant) (Homo sapiens, UniProt Q07343); test: Inhibition of PDE4B activity: SPA and/or Fluorescence Polarisation (FP) assay; type: biochemical; details: one reading (n=1) or average of 2 or more readings, read-out: PDE4B pIC50 (±about 0.5) (converted)
T1 construct: made in house
In short: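 Human recombinant PDE4B activity measured by SPA with [3H]cAMP at about 10 nM, 1 h at ambient temperature, enzyme set for ≤20% substrate hydrolysis, or by IMAP FP with Fl-cAMP at about 40 nM, 40 min at ambient temperature under linear conditions. Inhibition curves fitted; values reported as pIC50.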

[3] = test system: COPD patients; details: cited from earlier work
[4] = test system: humans with histories of allergic rhinitis; details: orally 500 ug once daily for 9 days; intranasal allergen provocation (pollen extracts); cited from earlier work

T1 sequence (Q07343 1-564 isoform Q07343-2): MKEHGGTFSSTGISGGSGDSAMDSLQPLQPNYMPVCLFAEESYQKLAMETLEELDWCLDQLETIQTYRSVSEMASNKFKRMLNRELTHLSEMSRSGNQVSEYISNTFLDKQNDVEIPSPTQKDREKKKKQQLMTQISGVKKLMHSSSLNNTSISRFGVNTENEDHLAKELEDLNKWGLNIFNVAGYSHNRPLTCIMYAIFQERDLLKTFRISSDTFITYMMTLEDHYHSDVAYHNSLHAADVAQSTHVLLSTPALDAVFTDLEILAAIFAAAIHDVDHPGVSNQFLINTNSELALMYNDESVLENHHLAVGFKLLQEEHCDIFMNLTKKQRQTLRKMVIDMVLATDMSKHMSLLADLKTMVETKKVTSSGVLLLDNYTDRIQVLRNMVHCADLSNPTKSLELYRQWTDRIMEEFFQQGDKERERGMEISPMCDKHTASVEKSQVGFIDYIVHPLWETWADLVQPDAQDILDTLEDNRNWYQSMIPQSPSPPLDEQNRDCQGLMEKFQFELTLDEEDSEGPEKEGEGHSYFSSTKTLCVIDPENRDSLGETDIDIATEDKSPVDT

IC50 [2] [nM] | Structure (SMILES) | further results
 | COc1ccc(C2CNC(=O)NC2)cc1O[C@H]1C[C@@H]2CC[C@H]1C2 [CP80,633] | inflammatory parameters in atopic dermatitis patients ([1]; 0.5% ointment, twice daily topical application): reductions of inflammatory parameters
0.126 to 1 | CCn1ncc2c(NC3CCOCC3)c(CNC(=O)c3ccc(C)nc3)c(C)nc21 [Example 337, N-{[1-ethyl-6-methyl-4-(tetrahydro-2H-pyran-4-ylamino)-1H-pyrazolo[3,4-b]pyridin-5-yl]methyl}-6-methyl-3-pyridinecarboxamide] | 
0.01 to 0.1 | CCc1nc2c(cnn2CC)c(NC2CCOCC2)c1CNC(=O)c1csc(C(F)(F)F)n1 [Example 339, N-{[1,6-diethyl-4-(tetrahydro-2H-pyran-4-ylamino)-1H-pyrazolo[3,4-b]pyridin-5-yl]methyl}-2-(trifluoromethyl)-1,3-thiazole-4-carboxamide] | 
0.126 to 1 | CCc1nc2c(cnn2CC)c(NC2CCOCC2)c1CNC(=O)C1CCN(S(C)(=O)=O)CC1 [Example 341, N-{[1,6-diethyl-4-(tetrahydro-2H-pyran-4-ylamino)-1H-pyrazolo[3,4-b]pyridin-5-yl]methyl}-1-(methylsulfonyl)-4-piperidinecarboxamide] | 
0.126 to 1 | CCc1nc2c(cnn2CC)c(NC2CCOCC2)c1CN1CCN(C)C1=O [Example 343, 1-{[1,6-diethyl-4-(tetrahydro-2H-pyran-4-ylamino)-1H-pyrazolo[3,4-b]pyridin-5-yl]methyl}-3-methyl-2-imidazolidinone] | 
0.126 to 1 | CCc1nc2c(cnn2CC)c(NC2CCOCC2)c1CN1Cc2nnsc2C1=O [Example 344, 5-{[1,6-diethyl-4-(tetrahydro-2H-pyran-4-ylamino)-1H-pyrazolo[3,4-b]pyridin-5-yl]methyl}-4,5-dihydro-6H-pyrrolo[3,4-d][1,2,3]thiadiazol-6-one] | 
0.126 to 1 | CCc1nc2c(cnn2CC)c(NC2CCOCC2)c1CNC(=O)c1cnc(C(C)C)nc1 [Example 346, N-{[1,6-diethyl-4-(tetrahydro-2H-pyran-4-ylamino)-1H-pyrazolo[3,4-b]pyridin-5-yl]methyl}-2-(1-methylethyl)-5-pyrimidinecarboxamide] | 
0.126 to 1 | CCn1ncc2c(NC3CCOCC3)c(CNC(=O)c3cnc(C(C)C)nc3)c(C)nc21 [Example 347, N-{[1-ethyl-6-methyl-4-(tetrahydro-2H-pyran-4-ylamino)-1H-pyrazolo[3,4-b]pyridin-5-yl]methyl}-2-(1-methylethyl)-5-pyrimidinecarboxamide] | 
0.126 to 1 | CCn1ncc2c(NC3CCOCC3)c(CNC(=O)c3cnc(C)cn3)c(C(F)(F)F)nc21 [Example 348, N-{[1-Ethyl-4-(tetrahydro-2H-pyran-4-ylamino)-6-(trifluoromethyl)-1H-pyrazolo[3,4-b]pyridin-5-yl]methyl}-5-methyl-2-pyrazinecarboxamide] | 
0.126 to 1 | CCn1ncc2c(NC3CCOCC3)c(CNC(=O)c3cnc(C)s3)c(C(F)(F)F)nc21 [Example 349, N-{[1-Ethyl-4-(tetrahydro-2H-pyran-4-ylamino)-6-(trifluoromethyl)-1H-pyrazolo[3,4-b]pyridin-5-yl]methyl}-2-methyl-1,3-thiazole-5-carboxamide] | 
 | COc1ccc([C@]2(C#N)CC[C@@H](C(=O)O)CC2)cc1OC1CCCC1 [cilomilast] | forced expiratory volume in 1s (FEV1) in COPD patients ([3]; 15 mg orally twice daily): appears to improve forced expiratory volume in 1s (FEV1); antiinflammatory effects in COPD patients ([3]; human, in vivo): appears to have antiinflammatory effects
 | Nc1nc2c([nH]1)c(=O)n(CC1CC1)c(=O)n2CC1CC1 [cipamfylline] | effectiveness in the treatment of atopic dermatitis patients ([1]; 0.15% cream, vs vehicle and hydrocortisone 17-butyrate (0.1%) cream): significantly more effective than vehicle, but significantly less effective than hydrocortisone 17-butyrate (0.1%) cream
 | O=C(Nc1c(Cl)cncc1Cl)c1ccc(OC(F)F)c(OCC2CC2)c1 [roflumilast] | FEV1 in COPD patients ([3]; human, in vivo): appears to show small improvements in FEV1; rhinal airflow during the treatment period (compared to placebo) [4]: effective in improving rhinal airflow
